We go through one compound from ChEMBL document CHEMBL5046321, “Discovery by Virtual Screening of an Inhibitor of CDK5-Mediated PPARγ Phosphorylation” (ACS Med Chem Lett, 2022).

The nature of series [1]: Metabolic stability in human liver microsomes assessed as intrinsic clearance measured upto 30 mins by LC-MS/MS analysis. Format: ADME, Microsome. To be noted: read-out: CLH.
A short description of series [2]: Metabolic stability in rat Hepatocyte assessed as intrinsic clearance in 1 million cells/mL measured upto 120 mins by LC-MS/MS analysis. It is filed as ADME, cell-based. The settings on record: hepatocytes, read-out: CLH.
Series [3] is described as follows: Lipophilicity, logD of compound at pH 7.4 by shake flask assay based LC-MS/MS analysis. To be noted: buffer. Format: physicochemical.
A short description of series [4]: Metabolic stability in mouse Hepatocyte assessed as intrinsic clearance in 1 million cells/mL by LC-MS/MS analysis. The settings on record: hepatocytes, read-out: CLH. It is filed as ADME, cell-based.
The nature of series [5]: Apparent permeability in human Caco-2 cells at 10 uM incubated for 45 to 120 mins by LC-MS/MS analysis. It is filed as ADME, cell-based. To be noted: time 45-120 min, read-out: permeability.
The nature of series [6]: Metabolic stability in human Hepatocyte assessed as intrinsic clearance in 1 million cells/mL measured upto 60 mins by LC-MS/MS analysis. Format: ADME, cell-based. To be noted: hepatocytes, read-out: CLH.
Series [7] is described as follows: Cmax in lean C57BL/6J mouse at 100 umol/kg, po dosed daily for 7 days by HPLC-MS analysis. Format: ADME, organism-based. The arrangement: route oral, dose 100 µmol/kg, time 7 day. The settings on record: in vivo.
A short description of series [8]: Aqueous solubility of the compound by LC-MS/MS analysis. Format: physicochemical. To be noted: buffer.
Series [9] is described as follows: Oral bioavailability in lean C57BL/6J mouse at 100 umol/kg dosed daily for 7 days by HPLC-MS analysis. It is filed as ADME, organism-based. The settings on record: in vivo, at 100 µmol/kg, time 7 day.
Series [10] is described as follows: Half life in lean C57BL/6J mouse at 100 umol/kg, po dosed daily for 7 days by HPLC-MS analysis. It is filed as ADME, organism-based. To be noted: in vivo, dose 100 µmol/kg, time 7 day.

In brackets after ≈: the same amount, converted by molar mass. Where only a bound is given, the exact number is not on record here.

Take `O=C(O)c1nn(Cc2ccc(Cl)c(Cl)c2)c(=O)c2cc(Oc3ccccc3)ccc12`: in [1], the microsomal CLint is below 4 µL/min/mg. For the same compound, the hepatocyte CLint in series [2] is 8.8 µL/min/1e6 cells; in [4] it was 10 µL/min/1e6 cells; in [6], 15.2 µL/min/1e6 cells. The same compound had a pH-dependent lipophilicity (logD) in series [3] of 2.3. Further, the Papp at 10 µM in [5] was 13 ×10⁻⁶ cm/s. The highest level in series [7] (Cmax) was 167 µM. This compound also came in with a solubility in [8] of 324 µM (≈ 143 µg/mL). In addition, the bioavailability in series [9] worked out at 109%. In series [10], this compound showed a half-life of 5 h.
